Results published in patent US11186554B2, “Non-fused tricyclic compounds” (VIVACE THERAPEUTICS, INC., priority 2017, dated 2021).

These compounds were tested on firefly luciferase activity (assay: Dual-Glo firefly/renilla luciferase reporter assay in cells). Conditions: 24 h, read-out: Firefly Luciferase IC50 (μM).
Format: cell-based

Row | SMILES | IC50 [µM]
1 | CCOC(=O)Cn1nnc(-c2ccccc2Nc2ccc(F)cc2)n1 [Compound 7, ethyl 2-[5-[2-(4-fluoroanilino)phenyl]tetrazol-2-yl]acetate] | 0.1 to 1
2 | OCCn1nnc(-c2ccccc2Nc2ccc(F)cc2)n1 [Compound 8, 2-[5-[2-(4-fluoroanilino)phenyl]tetrazol-2-yl]ethanol] | 0.1 to 1
3 | CCc1ccc(Nc2ccccc2-c2nnn(CCO)n2)cc1 [Compound 9, 2-[5-[2-(4-ethylanilino)phenyl]tetrazol-2-yl]ethanol] | 0.1 to 1
4 | OCCn1nnc(-c2ccccc2Nc2cccc(F)c2)n1 [Compound 10, 2-(5-(2-((3-fluorophenyl)amino)phenyl)-2H-tetrazol-2-yl)ethanol] | 0.1 to 1
5 | OCCn1nnc(-c2ccccc2Nc2ccc(OC(F)(F)F)cc2)n1 [Compound 11, 2-(5-(2-((4-(Trifluoromethoxy)phenyl)amino)phenyl)-2H-tetrazol-2-yl)ethanol] | < 0.1
6 | COc1ccc(Nc2ccccc2-c2nnn(CCO)n2)cc1 [Compound 12, 2-[5-[2-(4-methoxyanilino)phenyl]tetrazol-2-yl]ethanol] | 0.1 to 1
7 | CCc1cccc(Nc2ccccc2-c2nnn(CCO)n2)c1 [Compound 17, 2-[5-[2-(3-ethylanilino)phenyl]tetrazol-2-yl]ethanol] | 0.1 to 1
8 | CCOC(=O)Cn1cc(-c2ccccc2Nc2cccc(C(F)(F)F)c2)nn1 [Compound 18, Ethyl 2-[4-[2-[3-(trifluoromethyl)anilino]phenyl]triazol-1-yl]acetate] | 1 to 5
9 | OCCn1nnc(-c2ccccc2Nc2ccc(SC(F)F)cc2)n1 [Compound 31, 2-[5-[2-[4-(difluoromethylsulfanyl)anilino]phenyl]tetrazol-2-yl]ethanol] | 0.1 to 1
10 | OCCn1nnc(-c2ccccc2Nc2ccccc2F)n1 [Compound 36, 2-(5-(2-((2-fluorophenyl)amino)phenyl)-2H-tetrazol-2-yl)ethanol] | 1 to 5
11 | OCCn1cnc(-c2ccccc2Nc2cccc(C(F)(F)F)c2)n1 [Compound 39, 2-(3-(2-((3-(trifluoromethyl)phenyl)amino)phenyl)-1H-1,2,4-triazol-1-yl)ethanol] | 1 to 5
12 | CN(C)C(=O)Cn1nnc(-c2ccccc2Nc2ccc(C(F)(F)F)cc2)n1 [Compound 43, N,N-dimethyl-2-[5-[2-[4-(trifluoromethyl)anilino]phenyl]tetrazol-2-yl]acetamide] | 0.1 to 1
13 | CNC(=O)Cn1nnc(-c2ccccc2Nc2ccc(OC(F)(F)F)cc2)n1 [Compound 46, N-methyl-2-[5-[2-[4-(trifluoromethoxy)anilino]phenyl]tetrazol-2-yl]acetamide] | 0.1 to 1
14 | CN(C)CCn1nnc(-c2ccccc2Nc2ccc(C(F)(F)F)cc2)n1 [Compound 50, 2-[2-[2-(dimethylamino)ethyl]tetrazol-5-yl]-N-[4-(trifluoromethyl)phenyl]aniline] | 0.1 to 1
15 | OCCn1nnc(-c2cccnc2Nc2ccc(C(F)(F)F)cc2)n1 [Compound 69, 2-(5-(2-((4-(trifluoromethyl)phenyl)amino)pyridin-3-yl)-2H-tetrazol-2-yl)ethanol] | 0.1 to 1
16 | OCCn1nnc(-c2cccnc2Nc2ccc(OC(F)(F)F)cc2)n1 [Compound 75, 2-(5-(2-((4-(trifluoromethoxy)phenyl)amino)pyridin-3-yl)-2H-tetrazol-2-yl)ethanol] | 0.1 to 1
17 | OCCn1nnc(-c2cnccc2Nc2ccc(C(F)(F)F)cc2)n1 [Compound 78, 2-[5-[4-[4-(trifluoromethyl)anilino]-3-pyridyl]tetrazol-2-yl]ethanol] | 1 to 5

Same assay, conditions: 24 hrs compound treatment, starting from 3 uM, 1:3 dilution, 10 points; read-out: Firefly Luciferase IC50

Row | SMILES | IC50 [µM]
18 | OCCn1nnc(-c2ccccc2Nc2cccc(C(F)(F)F)c2)n1 [Compound 3, 2-[5-[2-[3-(trifluoromethyl)anilino]phenyl]tetrazol-2-yl]ethanol] | 1 to 5
19 | COCCn1nnc(-c2ccccc2Nc2cccc(C(F)(F)F)c2)n1 [Compound 5, 2-[2-(2-methoxyethyl)tetrazol-5-yl]-N-[3-(trifluoromethyl)phenyl]aniline] | 1 to 5
20 | OCCCn1nnc(-c2ccccc2Nc2cccc(C(F)(F)F)c2)n1 [Compound 13, 3-[5-[2-[3-(trifluoromethyl)anilino]phenyl]tetrazol-2-yl]propan-1-ol] | 0.1 to 1
21 | OCCn1nnc(-c2ccccc2Nc2ccc(C(F)(F)F)cc2)n1 [Compound 23, 2-(5-(2-((4-(Trifluoromethyl)phenyl)amino)phenyl)-2H-tetrazol-2-yl)ethanol] | < 0.1
22 | OCCn1nnc(-c2ccccc2Nc2cccc(OC(F)(F)F)c2)n1 [Compound 24, 2-(5-(2-((3-(Trifluoromethoxy)phenyl)amino)phenyl)-2H-tetrazol-2-yl)ethanol] | 0.1 to 1
23 | OCCn1nnc(-c2ccccc2Nc2ccc(F)c(F)c2)n1 [Compound 25, 2-[5-[2-(3,4-difluoroanilino)phenyl]tetrazol-2-yl]ethanol] | 0.1 to 1
24 | OCCn1nnc(-c2ccccc2Nc2ccc(F)cc2F)n1 [Compound 28, 2-(5-(2-((2,4-difluorophenyl)amino)phenyl)-2H-tetrazol-2-yl)ethan-1-ol] | 0.1 to 1
25 | FC(F)(F)c1ccc(Nc2ccccc2-c2nnn(Cc3cccnc3)n2)cc1 [Compound 40, 2-[2-(3-pyridylmethyl)tetrazol-5-yl]-N-[4-(trifluoromethyl)phenyl]aniline] | 0.1 to 1
26 | FC(F)(F)c1ccc(Nc2ccccc2-c2nnn(Cc3ccncc3)n2)cc1 [Compound 41, 2-[2-(4-pyridylmethyl)tetrazol-5-yl]-N-[4-(trifluoromethyl)phenyl]aniline] | 0.1 to 1
27 | CNC(=O)Cn1nnc(-c2ccccc2Nc2ccc(C(F)(F)F)cc2)n1 [Compound 42, N-methyl-2-[5-[2-[4-(trifluoromethyl)anilino]phenyl]tetrazol-2-yl]acetamide] | < 0.1
28 | CCN(CC)C(=O)Cn1nnc(-c2ccccc2Nc2ccc(C(F)(F)F)cc2)n1 [Compound 44, N,N-diethyl-2-[5-[2-[4-(trifluoromethyl)anilino]phenyl]tetrazol-2-yl]acetamide] | 1 to 5
29 | O=C(Cn1nnc(-c2ccccc2Nc2ccc(C(F)(F)F)cc2)n1)N1CCCC1 [Compound 45, 1-pyrrolidin-1-yl-2-[5-[2-[4-(trifluoromethyl)anilino]phenyl]tetrazol-2-yl]ethanone] | 0.1 to 1
30 | FC(F)(F)Oc1ccc(Nc2ccccc2-c2nnn(Cc3cccnc3)n2)cc1 [Compound 51, 2-[2-(3-pyridylmethyl)tetrazol-5-yl]-N-[4-(trifluoromethoxy)phenyl]aniline] | 1 to 5
31 | FC(F)(F)c1ccc(Nc2ccccc2-c2nnn(Cc3ccccn3)n2)cc1 [Compound 52, 2-[2-(2-pyridylmethyl)tetrazol-5-yl]-N-[4-(trifluoromethyl)phenyl]aniline] | 0.1 to 1
32 | FC(F)(F)Oc1ccc(Nc2ccccc2-c2nnn(Cc3ccncc3)n2)cc1 [Compound 53, 2-[2-(4-pyridylmethyl)tetrazol-5-yl]-N-[4-(trifluoromethoxy)phenyl]aniline] | 1 to 5
33 | FC(F)(F)Oc1ccc(Nc2ccccc2-c2nnn(Cc3ccccn3)n2)cc1 [Compound 54, 2-(2-(pyridin-2-ylmethyl)-2H-tetrazol-5-yl)-N-(4-(trifluoromethoxy)phenyl)aniline] | 1 to 5
34 | CCOC(=O)Cn1cc(-c2ccccc2Nc2cccc(C(F)(F)F)c2)cn1 [Compound 58, ethyl 2-(4-(2-((3-(trifluoromethyl)phenyl)amino)phenyl)-1H-pyrazol-1-yl)acetate] | 0.1 to 1
35 | CCOC(=O)Cn1cc(-c2ccccc2Nc2ccc(C(F)(F)F)cc2)cn1 [Compound 60, ethyl 2-(4-(2-((4-(trifluoromethyl)phenyl)amino)phenyl)-1H-pyrazol-1-yl)acetate] | < 0.1
36 | O=C(O)Cn1cc(-c2ccccc2Nc2ccc(C(F)(F)F)cc2)cn1 [Compound 61, 2-(4-(2-((4-(trifluoromethyl)phenyl)amino)phenyl)-1H-pyrazol-1-yl)acetic Acid] | 0.1 to 1
37 | CN(C)CCCn1nnc(-c2ccccc2Nc2ccc(C(F)(F)F)cc2)n1 [Compound 62, 2-(2-(3-(dimethylamino)propyl)-2H-tetrazol-5-yl)-N-(4-(trifluoromethyl)phenyl) Aniline] | 1 to 5
38 | CN(C)CCCn1nnc(-c2ccccc2Nc2ccc(OC(F)(F)F)cc2)n1 [Compound 63, 2-(2-(3-(dimethylamino)propyl)-2H-tetrazol-5-yl)-N-(4-(trifluoromethoxy)phenyl) Aniline] | 1 to 5
39 | CCOC(=O)Cn1cc(-c2ccccc2Nc2ccc(C(F)(F)F)cc2)c(C)n1 [Compound 76, ethyl 2-[3-methyl-4-[2-[4-(trifluoromethyl)anilino]phenyl]pyrazol-1-yl]acetate] | 0.1 to 1
40 | CCOC(=O)Cn1ncc(-c2ccccc2Nc2ccc(C(F)(F)F)cc2)c1C [Compound 77, ethyl 2-[5-methyl-4-[2-[4-(trifluoromethyl)anilino]phenyl]pyrazol-1-yl]acetate] | < 0.1
41 | Cc1nn(CCO)cc1-c1ccccc1Nc1ccc(C(F)(F)F)cc1 [Compound 83, 2-[3-methyl-4-[2-[4-(trifluoromethyl)anilino]phenyl]pyrazol-1-yl]ethanol] | 1 to 5
42 | Cc1c(-c2ccccc2Nc2ccc(C(F)(F)F)cc2)cnn1CCO [Compound 84, 2-[5-methyl-4-[2-[4-(trifluoromethyl)anilino]phenyl]pyrazol-1-yl]ethanol] | 1 to 5
43 | CCOC(=O)Cn1ncc(-c2ccccc2Nc2cccc(C(F)(F)F)c2)c1C [Compound 90, ethyl 2-(5-methyl-4-(2-((3-(trifluoromethyl)phenyl)amino)phenyl)-1H-pyrazol-1-yl)acetate] | 1 to 5
44 | CC(=O)NCCn1nnc(-c2ccccc2Nc2ccc(C(F)(F)F)cc2)n1 [Compound 92, N-[2-[5-[2-[4-(trifluoromethyl)anilino]phenyl]tetrazol-2-yl]ethyl]acetamide] | 0.1 to 1
45 | CS(=O)(=O)NCCn1nnc(-c2ccccc2Nc2ccc(C(F)(F)F)cc2)n1 [Compound 93, N-[2-[5-[2-[4-(trifluoromethyl)anilino]phenyl]tetrazol-2-yl]ethyl]methane Sulfonamide] | 1 to 5
46 | OCCCn1nnc(-c2ccccc2Nc2ccc(C(F)(F)F)cc2)n1 [Compound 98, 3-(5-(2-((4-(trifluoromethyl)phenyl)amino)phenyl)-2H-tetrazol-2-yl)propan-1-01] | < 0.1
